Counter-ions that a name gives are not always drawn. Like-named read-outs stand apart in the source and are kept apart here.
System: HIV-1 LTR promoter
Assay type: cell-based
[1] = Pharmakon 1600 library, 10 uM, 24 hours, FIG. 10
[2] = Pharmakon 1600 library, 10 uM, 24 hours, FIG. 12

Row | Compound | identified as variability enhancer (VE) in noise screen [1] | other results
1 | C[C@H]1O[C@@H](O[C@H]2[C@@H](O)C[C@H](O[C@H]3[C@@H](O)C[C@H](O[C@H]4CC[C@@]5(C)[C@H](CC[C@@H]6[C@@H]5CC[C@]5(C)[C@@H](C7=CC(=O)OC7)CC[C@]65O)C4)O[C@@H]3C)O[C@@H]2C)C[C@H](O)[C@@H]1O [digitoxin] | variability enhancers | 
2 | NCCS(=O)(=O)O [taurine] | variability enhancers | 
3 | Nc1ccn([C@H]2CC[C@@H](CO)O2)c(=O)n1 [zalcitabine] | variability enhancers | 
4 | CCCCCC(=O)O[C@]1(C(C)=O)CC[C@H]2[C@@H]3CCC4=CC(=O)CC[C@]4(C)[C@H]3CC[C@@]21C [hydroxyprogesterone caproate] |  | identified as variability suppressor (VS) in noise screen [2]: variability suppressors
5 | Nc1c2ccccc2nc2ccccc12 [aminacrine] | variability enhancers | 
6 | C=C(NC(=O)C(=C)NC(=O)c1csc(C2=N[C@@H]3c4csc(n4)[C@H]4NC(=O)c5csc(n5)[C@H]([C@](C)(O)[C@@H](C)O)NC(=O)[C@H]5CSC(=N5)/C(=C/C)NC(=O)[C@H]([C@@H](C)O)NC(=O)c5csc(n5)[C@]3(CC2)NC(=O)[C@H](C)NC(=O)C(=C)NC(=O)[C@H](C)NC(=O)[C@H]([C@@H](C)CC)N[C@@H]2C=Cc3c([C@H](C)O)cc(nc3[C@H]2O)C(=O)O[C@@H]4C)n1)C(N)=O [thiostrepton] | variability enhancers | 
7 | Nc1ccn([C@@H]2O[C@H](CO)[C@@H](O)[C@@H]2O)c(=O)n1 [cytarabine, (β-D-arabinofuranosyl)cytosine] |  | noise deviation of VM hit in the screen (10 uM, 24 hours): +5 σ
8 | CC(C)(C#N)c1cc(Cn2cncn2)cc(C(C)(C)C#N)c1 [V68, anastrozole] | variability enhancers | 
9 | CN1C[C@H](C(=O)N[C@]2(C)O[C@@]3(O)[C@@H]4CCCN4C(=O)[C@H](Cc4ccccc4)N3C2=O)C=C2c3cccc4[nH]cc(c34)C[C@H]21 [ergotamine tartrate] |  | identified as variability suppressor (VS) in noise screen [2]: variability suppressors
10 | CO[C@H]1/C=C/O[C@@]2(C)Oc3c(C)c(O)c4c(O)c(c5c(nc6cc(C)ccn65)c4c3C2=O)NC(=O)/C(C)=C\C=C\[C@H](C)[C@H](O)[C@@H](C)[C@@H](O)[C@@H](C)[C@H](OC(C)=O)[C@@H]1C [rifaximin] | variability enhancers | 
11 | bleomycin [V66] | variability enhancers | 
12 | O=C(O)c1nn(Cc2ccc(Cl)cc2Cl)c2ccccc12 [lonidamine] | variability enhancers | 
13 | COP(=O)(OC)OC=C(Cl)Cl [dichlorvos] |  | identified as variability suppressor (VS) in noise screen [2]: variability suppressors
14 | Cc1cc2nc3c(=O)[nH]c(=O)nc-3n(C[C@H](O)[C@H](O)[C@H](O)COP(=O)([O-])O)c2cc1C.[Na+] [riboflavin 5-phosphate sodium] | variability enhancers | 
15 | Nc1nc2[nH]cc(CCc3ccc(C(=O)N[C@@H](CCC(=O)O)C(=O)O)cc3)c2c(=O)[nH]1 [V74, pemetrexed] | variability enhancers | 
16 | CCc1c2c(nc3ccc(OC(=O)N4CCC(N5CCCCC5)CC4)cc13)-c1cc3c(c(=O)n1C2)COC(=O)[C@]3(O)CC [irinotecan hydrochloride] | variability enhancers | 
17 | Nc1ncnc2c1ncn2[C@@H]1O[C@H](COP(=O)(O)O)[C@@H](O)[C@H]1O [adenosine phosphate] |  | identified as variability suppressor (VS) in noise screen [2]: variability suppressors
18 | CS(=O)(=O)OCCCCOS(C)(=O)=O [V69, busulfan] | variability enhancers | 
19 | c1ccc2c(c1)Nc1ccccc1S2 [phenothiazine] |  | identified as variability suppressor (VS) in noise screen [2]: variability suppressors

Row | Compound | identified as variability enhancer (VE) in noise screen [1] | other results
20 | O=C1OC2(c3ccccc31)c1cc(I)c(O)c(I)c1Oc1c2cc(I)c(O)c1I [erythrosine sodium] | variability enhancers | 
21 | C[C@@H]1C[C@@H]([C@H](O)CC2CC(=O)NC(=O)C2)C(=O)[C@@H](C)C1 [cycloheximide] |  | identified as variability suppressor (VS) in noise screen [2]: variability suppressors
22 | COC1=CC(=O)C[C@@H](C)[C@]12Oc1c(Cl)c(OC)cc(OC)c1C2=O [griseofulvin] | variability enhancers | 
23 | c1ccc(C2CN3CCSC3=N2)cc1 (stereo not drawn) [tetramizole hydrochloride] |  | identified as variability enhancer (VE) in noise screen: variability enhancers
24 | C[N+](C)(C)CC(O)CC(=O)[O-].Cl (stereo not drawn) [carnitine hydrochloride] | variability enhancers | 
25 | CN(C)CCCOc1nn(Cc2ccccc2)c2ccccc12 [benzydamine hydrochloride] |  | identified as variability suppressor (VS) in noise screen [2]: variability suppressors
26 | arsenic trioxide |  | identified as variability suppressor (VS) in noise screen [2]: variability suppressors
27 | N[C@@H](Cc1ccc(N(CCCl)CCCl)cc1)C(=O)O [melphalan] | variability enhancers | 
28 | N=C(N)NCCN1CCCCCCC1 [V21, guanethidine sulfate] |  | identified as variability enhancer (VE) in noise screen: variability enhancers
29 | Cc1cc2nc3c(=O)[nH]c(=O)nc-3n(C[C@H](O)[C@H](O)[C@H](O)CO)c2cc1C [riboflavin] |  | identified as variability enhancer (VE) in noise screen: variability enhancers
30 | CO[C@@]12[C@H](COC(N)=O)C3=C(C(=O)C(C)=C(N)C3=O)N1C[C@@H]1N[C@@H]12 [mitomycin c] | variability enhancers | 
31 | COC(=O)C1=CCCN(C)C1 [Arecoline hydrobromide] | variability enhancers | 
32 | Cl.N=C(N)NCCC[C@H](N)C(=O)O [arginine hydrochloride] | variability enhancers | 
33 | CNCCCC12CCC(c3ccccc31)c1ccccc12 [maprotiline hydrochloride] |  | identified as variability suppressor (VS) in noise screen: variability suppressors
34 | CN(Cc1cnc2nc(N)nc(N)c2n1)c1ccc(C(=O)N[C@@H](CCC(=O)O)C(=O)O)cc1 (racemic) [methotrexate(+/−)] | variability enhancers | 
35 | COP(=O)(OC)C(O)C(Cl)(Cl)Cl (stereo not drawn) [trichlorfon] |  | identified as variability suppressor (VS) in noise screen [2]: variability suppressors
36 | CC(CCc1ccc(O)cc1)NCCc1ccc(O)c(O)c1 (stereo not drawn) [dobutamine hydrochloride] | variability enhancers | 
37 | CC(=O)O[C@H]1C(=O)[C@@]2(C)[C@H]([C@H](OC(=O)c3ccccc3)[C@]3(O)C[C@H](OC(=O)[C@H](O)[C@@H](NC(=O)c4ccccc4)c4ccccc4)C(C)=C1C3(C)C)[C@]1(OC(C)=O)CO[C@@H]1C[C@@H]2O [Taxol] | variability enhancers | 
38 | Cc1ccc2c(Br)cc(Br)c(OC(=O)c3ccccc3)c2n1 [broxaldine] |  | identified as variability suppressor (VS) in noise screen [2]: variability suppressors

Row | Compound | identified as variability enhancer (VE) in noise screen [1] | other results
39 | Nc1nc2nc[nH]c2c(=S)[nH]1 [thioguanine] |  | identified as variability enhancer (VE) in noise screen: variability enhancers
40 | CN(C)C(=S)SSC(=S)N(C)C [thiram] | variability enhancers | 
41 | CCN(CC)C(=O)c1cccnc1 [nikethamide] | variability enhancers | 
42 | CCCSc1ccc2nc(NC(=O)OC)[nH]c2c1 [albendazole] |  | identified as variability enhancer (VE) in noise screen: variability enhancers
43 | meclocycline sulfosalicylate |  | identified as variability suppressor (VS) in noise screen [2]: variability suppressors
44 | CCN1CC(CCN2CCOCC2)C(c2ccccc2)(c2ccccc2)C1=O (stereo not drawn) [doxapram hydrochloride] | variability enhancers | 
45 | COC(=O)Nc1nc2ccc([S+]([O-])c3ccccc3)cc2[nH]1 (stereo not drawn) [oxfendazole] | variability enhancers | 
46 | N#Cc1nn(-c2c(Cl)cc(C(F)(F)F)cc2Cl)c(N)c1[S+]([O-])C(F)(F)F (stereo not drawn) [fipmnil, fipronil] |  | identified as variability suppressor (VS) in noise screen [2]: variability suppressors
47 | C[C@@H]1O[C@@H](O[C@H]2C[C@@H](O)[C@]3(CO)[C@H]4[C@H](O)C[C@]5(C)[C@@H](C6=CC(=O)OC6)CC[C@]5(O)[C@@H]4CC[C@]3(O)C2)[C@H](O)[C@H](O)[C@H]1O [ouabain] | variability enhancers | 
48 | [O-][n+]1ccccc1[S-].[O-][n+]1ccccc1[S-].[Zn+2] [pyrithione zinc] |  | identified as variability suppressor (VS) in noise screen: variability suppressors
49 | S=c1nc[nH]c2nc[nH]c12 [V9, mercaptopurine] | variability enhancers | 
50 | Nc1nc(Cl)nc2c1ncn2[C@@H]1O[C@H](CO)[C@@H](O)[C@@H]1F [clofarabine] | variability enhancers | 
51 | CCC1=C[C@@H]2CN(C1)Cc1c([nH]c3ccccc13)[C@@](C(=O)OC)(c1cc3c(cc1OC)N(C)[C@H]1[C@@](O)(C(=O)OC)[C@H](OC(C)=O)[C@]4(CC)C=CCN5CC[C@]31[C@@H]54)C2 [vinorelbine] | variability enhancers | 
52 | [H]/N=C(/N)N/C(=N/[H])NCCc1ccccc1 [phenformin hydrochloride] |  | identified as variability suppressor (VS) in noise screen: variability suppressors
53 | CC[C@]1(O)C[C@H]2CN(CCc3c([nH]c4ccccc34)[C@@](C(=O)OC)(c3cc4c(cc3OC)N(C=O)[C@H]3[C@@](O)(C(=O)OC)[C@H](OC(C)=O)[C@]5(CC)C=CCN6CC[C@]43[C@@H]65)C2)C1 [vincristine sulfate] | variability enhancers | 
54 | C[C@H]1O[C@@H](O[C@H]2[C@@H](O)C[C@H](O[C@H]3[C@@H](O)C[C@H](O[C@H]4CC[C@@]5(C)[C@H](CC[C@@H]6[C@@H]5C[C@@H](O)[C@]5(C)[C@@H](C7=CC(=O)OC7)CC[C@]65O)C4)O[C@@H]3C)O[C@@H]2C)C[C@H](O)[C@@H]1O [digoxin] |  | identified as variability enhancer (VE) in noise screen: variability enhancers
55 | CC(=O)[O-].[Hg+][c]1ccccc1 [phenylmercuric acetate] |  | identified as variability enhancer (VE) in noise screen: variability enhancers
56 | COC(=O)Nc1nc2ccc(Sc3ccccc3)cc2[nH]1 [fenbendazole] | variability enhancers | 
57 | C[C@@H](O)CN(CCN(C[C@@H](C)O)C[C@@H](C)O)C[C@@H](C)O [editol] | variability enhancers | 

— patent publication US10184933B2, “Compositions, systems and methods for gene expression noise drug screening and uses thereof” (priority 2013, dated 2019)
